Our source for the EC50 and IC50 values is patent US20230340011A1 (Asteroid Therapeutics, priority 2022, published 2023).

One may read the IC50 as the concentration that gives 50% inhibition. A lower IC50 goes with higher potency.

Assay [1] concerns the target LXRβ (Homo sapiens (Human), UniProt P55055). The assay is described as follows: In vitro assay LXRβ: PathHunter NHR CHO cells, LXRβ / Steroid Receptor Co-activator Peptide enzyme fragment complementation. In kind it is cell-based. The settings on record: PathHunter NHR CHO cells, full-length human LXRβ and SRCP, chemiluminescent signal; read-out: LXRβ PPI. The gist of the method: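 Enzyme fragment complementation read-out: CHO cells stably expressing ProLink-tagged full-length human LXRβ plus nuclear enzyme acceptor–SRCP fusion, seeded and held overnight at 37° C. Medium with charcoal-dextran filtered serum; final vehicle 1%. Chemiluminescence measured after signal generation.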

In assay [2] the target is SREBP-2 (Homo sapiens (Human), UniProt Q12772). The assay is described as follows: In vitro assay SREBP-2: PathHunter U2OS SREBP-2 Nuclear Translocation Cell Line, U18666A-stimulated. In kind it is cell-based. Conditions: PathHunter U2OS SREBP-2 nuclear translocation cells, U18666A 10 μM, overnight (16 hours).

Where only a bound is given, the exact number is not on record here.

Chain of LXRβ (P55055 whole entry, the tested form may be a part): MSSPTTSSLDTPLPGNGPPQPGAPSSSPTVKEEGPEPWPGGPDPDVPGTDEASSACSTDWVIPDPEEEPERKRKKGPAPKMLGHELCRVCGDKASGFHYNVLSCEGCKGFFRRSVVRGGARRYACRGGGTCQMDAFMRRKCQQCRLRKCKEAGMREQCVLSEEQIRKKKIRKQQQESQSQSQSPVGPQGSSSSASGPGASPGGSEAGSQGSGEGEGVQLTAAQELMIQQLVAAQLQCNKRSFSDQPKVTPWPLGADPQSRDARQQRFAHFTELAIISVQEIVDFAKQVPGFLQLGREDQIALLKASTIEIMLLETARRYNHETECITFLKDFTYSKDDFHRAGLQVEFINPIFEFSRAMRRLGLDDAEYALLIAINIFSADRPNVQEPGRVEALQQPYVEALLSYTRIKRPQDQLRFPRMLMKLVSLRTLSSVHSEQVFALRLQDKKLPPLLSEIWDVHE

Regarding `Cc1nccc(N2CCN(C(=O)CC[C@@H](C)[C@H]3CC[C@H]4[C@@H]5CC=C6C[C@@H](O)CC[C@]6(C)[C@H]5CC[C@]34C)[C@@H](C)C2)n1` [Example 649, (R)-4-((3S,8S,9S,10R,13R,14S,17R)-3-hydroxy-10,13-dimethyl-2,3,4,7,8,9,10,11,12,13,14,15,16,17-tetradecahydro-1H-cyclopenta[a]phenanthren-17-yl)-1-((S)-2-methyl-4-(2-methylpyrimidin-4-yl)piperazin-1-yl)pentan-1-one], in assay [1], the EC50 is greater than 10 µM. The IC50 in assay [2] is less than 0.25 µM.
For the compound `C[C@H](CCC(=O)N1CCN(C(=O)C2CC2)[C@@H](C)C1)[C@H]1CC[C@H]2[C@@H]3CC=C4C[C@@H](O)CC[C@]4(C)[C@H]3CC[C@]12C` [Example 650, (R)-1-((S)-4-(cyclopropanecarbonyl)-3-methylpiperazin-1-yl)-4-((3S,8S,9S,10R,13R,14S,17R)-3-hydroxy-10,13-dimethyl-2,3,4,7,8,9,10,11,12,13,14,15,16,17-tetradecahydro-1H-cyclopenta[a]phenanthren-17-yl)pentan-1-one], the EC50 in assay [1] was greater than 10 µM. Also, in assay [2], the IC50 is less than 0.25 µM.
As for `C[C@H](CCC(=O)N1CCN(C(=O)C2CC2)C[C@@H]1C)[C@H]1CC[C@H]2[C@@H]3CC=C4C[C@@H](O)CC[C@]4(C)[C@H]3CC[C@]12C` [Example 651, (R)-1-((S)-4-(cyclopropanecarbonyl)-2-methylpiperazin-1-yl)-4-((3S,8S,9S,10R,13R,14S,17R)-3-hydroxy-10,13-dimethyl-2,3,4,7,8,9,10,11,12,13,14,15,16,17-tetradecahydro-1H-cyclopenta[a]phenanthren-17-yl)pentan-1-one], the EC50 in assay [1] was greater than 10 µM. In assay [2], the IC50 is less than 0.25 µM.
In the same order, the values of `C[C@H](CCC(=O)N1CCN(C(=O)C(C)(C)O)[C@@H](C)C1)[C@H]1CC[C@H]2[C@@H]3CC=C4C[C@@H](O)CC[C@]4(C)[C@H]3CC[C@]12C` [Example 652, (4R)-4-[(1R,3aS,3bS,7S,9aR,9bS,11aR)-7-hydroxy-9a,11a-dimethyl-1H,2H,3H,3aH,3bH,4H,6H,7H,8H,9H,9aH,9bH,10H,11H, 11 aH-cyclopenta[a]phenanthren-1-yl]-1-[(3 S)-4-(2-hydroxy-2-methylpropanoyl)-3-methylpiperazin-1-yl]pentan-1-one] are greater than 10 µM and less than 0.25 µM.
For the compound `C[C@H](CCC(=O)N1CCN(C(=O)C(C)(C)O)C[C@@H]1C)[C@H]1CC[C@H]2[C@@H]3CC=C4C[C@@H](O)CC[C@]4(C)[C@H]3CC[C@]12C` [Example 653, (R)-4-((3S,8S,9S,10R,13R,14S,17R)-3-hydroxy-10,13-dimethyl-2,3,4,7,8,9,10,11,12,13,14,15,16,17-tetradecahydro-1H-cyclopenta[a]phenanthren-17-yl)-1-((S)-4-(2-hydroxy-2-methylpropanoyl)-2-methylpiperazin-1-yl)pentan-1-one], the EC50 in assay [1] was greater than 10 µM. The compound further displayed an IC50 in assay [2] of less than 0.25 µM.
`C[C@H](CCC(=O)N1CCN(C(=O)N2CCCC2)[C@@H](C)C1)[C@H]1CC[C@H]2[C@@H]3CC=C4C[C@@H](O)CC[C@]4(C)[C@H]3CC[C@]12C` [Example 654, (4R)-4-[(1R,3aS,3bS,7S,9aR,9bS,11aR)-7-hydroxy-9a,11a-dimethyl-1H,2H,3H,3aH,3bH,4H,6H,7H,8H,9H,9aH,9bH,10H,11H,11aH-cyclopenta[a]phenanthren-1-yl]-1-[(3 S)-3-methyl-4-(pyrrolidine-1-carbonyl)piperazin-1-yl]pentan-1-one]: in assay [1], the EC50 was greater than 10 µM. The compound also displayed an IC50 in assay [2] of less than 0.25 µM.
The like results for `C[C@H](CCC(=O)N1CCN(C(=O)N2CCCC2)C[C@@H]1C)[C@H]1CC[C@H]2[C@@H]3CC=C4C[C@@H](O)CC[C@]4(C)[C@H]3CC[C@]12C` [Example 655, (R)-4-((3S,8S,9S,10R,13R,14S,17R)-3-hydroxy-10,13-dimethyl-2,3,4,7,8,9,10,11,12,13,14,15,16,17-tetradecahydro-1H-cyclopenta[a]phenanthren-17-yl)-1-((S)-2-methyl-4-(pyrrolidine-1-carbonyl)piperazin-1-yl)pentan-1-one] were, in that order, greater than 10 µM and less than 0.25 µM.
In the case of `C[C@H](CCC(=O)N1CCN(c2cnn(C)c2)[C@@H](C)C1)[C@H]1CC[C@H]2[C@@H]3CC=C4C[C@@H](O)CC[C@]4(C)[C@H]3CC[C@]12C` [Example 656, (R)-4-((3S,8S,9S,10R,13R,14S,17R)-3-hydroxy-10,13-dimethyl-2,3,4,7,8,9,10,11,12,13,14,15,16,17-tetradecahydro-1H-cyclopenta[a]phenanthren-17-yl)-1-((S)-3-methyl-4-(1-methyl-1H-pyrazol-4-yl)piperazin-1-yl)pentan-1-one], the EC50 in assay [1] is greater than 10 µM. Further, the IC50 in assay [2] was less than 0.25 µM.
As to `COc1ccnc(N2CCN(C(=O)CC[C@@H](C)[C@H]3CC[C@H]4[C@@H]5CC=C6C[C@@H](O)CC[C@]6(C)[C@H]5CC[C@]34C)CC2)c1` [Example 657, (R)-4-((3S,8S,9S,10R,13R,14S,17R)-3-hydroxy-10,13-dimethyl-2,3,4,7,8,9,10,11,12,13,14,15,16,17-tetradecahydro-1H-cyclopenta[a]phenanthren-17-yl)-1-(4-(4-methoxypyridin-2-yl)piperazin-1-yl)pentan-1-one], in assay [1], the EC50 is greater than 10 µM. The compound further had an IC50 in assay [2] of less than 0.25 µM.
With `Cc1ccnc(N2CCN(C(=O)CC[C@@H](C)[C@H]3CC[C@H]4[C@@H]5CC=C6C[C@@H](O)CC[C@]6(C)[C@H]5CC[C@]34C)CC2)c1` [Example 658, (R)-4-((3S,8S,9S,10R,13R,14S,17R)-3-hydroxy-10,13-dimethyl-2,3,4,7,8,9,10,11,12,13,14,15,16,17-tetradecahydro-1H-cyclopenta[a]phenanthren-17-yl)-1-(4-(4-methylpyridin-2-yl)piperazin-1-yl)pentan-1-one], in assay [1], the EC50 is greater than 10 µM. In addition, the IC50 in assay [2] is less than 0.25 µM.
For `COc1cccc(N2CCN(C(=O)CC[C@@H](C)[C@H]3CC[C@H]4[C@@H]5CC=C6C[C@@H](O)CC[C@]6(C)[C@H]5CC[C@]34C)CC2)n1` [Example 659, (R)-4-((3S,8S,9S,10R,13R,14S,17R)-3-hydroxy-10,13-dimethyl-2,3,4,7,8,9,10,11,12,13,14,15,16,17-tetradecahydro-1H-cyclopenta[a]phenanthren-17-yl)-1-(4-(6-methoxypyridin-2-yl)piperazin-1-yl)pentan-1-one], the EC50 in assay [1] is greater than 10 µM. In assay [2], this compound registered an IC50 of less than 0.25 µM.
Consider `COc1cncc(N2CCN(C(=O)CC[C@@H](C)[C@H]3CC[C@H]4[C@@H]5CC=C6C[C@@H](O)CC[C@]6(C)[C@H]5CC[C@]34C)CC2)c1` [Example 660, (R)-4-((3S,8S,9S,10R,13R,14S,17R)-3-hydroxy-10,13-dimethyl-2,3,4,7,8,9,10,11,12,13,14,15,16,17-tetradecahydro-1H-cyclopenta[a]phenanthren-17-yl)-1-(4-(5-methoxypyridin-3-yl)piperazin-1-yl)pentan-1-one], for which the EC50 in assay [1] was greater than 10 µM. In addition, the IC50 in assay [2] was less than 0.25 µM.
